This passage reports IC50 results from US9273057B2 (Bristol-Myers Squibb Company, priority 2012, dated 2016).

Each structure is given as a SMILES string. pIC50: −log10 of the molar value.

Chain of CK2A1 (CK2α/β) (P68400 whole entry, species assumed): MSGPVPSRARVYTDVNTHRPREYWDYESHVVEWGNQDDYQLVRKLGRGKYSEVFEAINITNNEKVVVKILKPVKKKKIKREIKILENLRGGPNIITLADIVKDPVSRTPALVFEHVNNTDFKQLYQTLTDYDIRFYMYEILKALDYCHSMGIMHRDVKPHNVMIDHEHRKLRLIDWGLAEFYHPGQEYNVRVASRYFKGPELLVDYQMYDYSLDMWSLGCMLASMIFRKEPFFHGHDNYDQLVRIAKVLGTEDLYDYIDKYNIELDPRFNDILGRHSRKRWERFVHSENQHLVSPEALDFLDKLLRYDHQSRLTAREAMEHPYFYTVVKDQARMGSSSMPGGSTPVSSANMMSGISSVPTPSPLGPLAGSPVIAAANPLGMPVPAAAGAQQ
Chain of CK2A1 (CK2α/β) (P67870 whole entry partner, species assumed): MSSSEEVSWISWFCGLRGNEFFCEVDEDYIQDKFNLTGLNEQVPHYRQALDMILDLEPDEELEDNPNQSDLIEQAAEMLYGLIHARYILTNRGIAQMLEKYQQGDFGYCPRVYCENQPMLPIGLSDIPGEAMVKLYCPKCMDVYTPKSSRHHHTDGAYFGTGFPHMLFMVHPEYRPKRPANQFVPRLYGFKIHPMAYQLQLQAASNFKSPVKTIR

This test concerns the target CK2A1 (CK2α/β) (Homo sapiens, UniProt P68400). The experiment in a line: CK2 kinase assay, CK2A1 (CK2α/β). It counts as biochemical. To be noted: Table A; read-out: CK2A1 (CK2α/β) (IC50).
Method: For example, in vitro protein kinase assays may be conducted with a relevant purified protein kinase and an appropriate synthetic substrate to determine the inhibitory activity of the compounds. […] Reaction mixtures were incubated at 30° C. for 1 hour, and reaction products were captured by binding to phosphocellulose (P81) filter plates. Incorporation of radioactive phosphate into the peptide substrate was determined by liquid scintillation counting.
The inhibitory activity of the instant compounds may also be measured by recombinant CK2 holoenzyme kinase assays. The assays were performed in U-bottom 384-well plates. […] The reaction was initiated by the combination of bacterially expressed, CK2 α/β or CK2 holoenzyme with substrates and test compounds. The reaction was incubated at room temperature for 60 minutes and terminated by adding 30 μl of 35 mM EDTA to each sample. The reaction mixture was analyzed on the Caliper LABCHIP® 3000 (Caliper, Hopkinton, Mass.) by electrophoretic separation of the fluorescent substrate and phosphorylated product. […] Compounds were dissolved at 10 mM in dimethylsulfoxide (DMSO) and evaluated at eleven concentrations. IC50 values were derived by non-linear regression analysis.
In the case of `COC(=O)N[C@@H]1CN(c2cc(C#N)cc(Nc3nc(NC4CC4)c4ncc(C#N)n4n3)c2Cl)C[C@H]1O` (racemic) [Example 9, (+/−) methyl ((3R,4R)-1-(2-chloro-5-cyano-3-((7-cyano-4-(cyclopropylamino)imidazo [2,1-f][1,2,4]triazin-2-yl)amino)phenyl)-4-hydroxy-3-pyrrolidinyl)carbamate], the pIC50 was 9.18.

As to `CC(=O)N[C@@H]1CN(c2cc(C#N)cc(Nc3nc(NC4CC4)c4ncc(C#N)n4n3)c2Cl)C[C@H]1O` (racemic) [Example 10, (+/−) N-((3R,4R)-1-(2-chloro-5-cyano-3-((7-cyano-4-(cyclopropylamino)imidazo [2,1-f][1,2,4]triazin-2-yl)amino)phenyl)-4-hydroxy-3-pyrrolidinyl)acetamide], the pIC50 was 9.29.

For `COC(=O)N[C@@H]1CN(c2cc(C#N)cc(Nc3nc(NC4CC4)c4ncc(C#N)n4n3)c2Cl)C[C@@H]1C` (racemic) [Example 11, (+/−) methyl ((3S,4S)-1-(2-chloro-5-cyano-3-((7-cyano-4-(cyclopropylamino)imidazo [2,1-f][1,2,4]triazin-2-yl)amino)phenyl)-4-methyl-3-pyrrolidinyl)carbamate], the pIC50 is 9.17.

As for `COC(=O)N[C@H]1C[C@H](O)CN(c2cc(C#N)cc(Nc3nc(NC4CC4)c4ncc(C#N)n4n3)c2Cl)C1` (racemic) [Example 17, (+/−) methyl ((3S,5S)-1-(2-chloro-5-cyano-3-((7-cyano-4-(cyclopropylamino)imidazo [2,1-f][1,2,4]triazin-2-yl)amino)phenyl)-5-hydroxy-3-piperidinyl)carbamate], the pIC50 was 9.23.

On to `C[C@@H]1CN(c2cc(C#N)cc(Nc3nc(NC4CC4)c4ncc(C#N)n4n3)c2Cl)C[C@@H]1O` (racemic) [Example 19, (+/−) 2-((2-chloro-5-cyano-3-((3R,4R)-3-hydroxy-4-methyl-1-pyrrolidinyl)phenyl)amino)-4-(cyclopropylamino)imidazo [2,1-f][1,2,4]triazine-7-carbonitrile], for which the pIC50 is 8.90.

On to `C[C@@H]1CN(c2cc(C#N)cc(Nc3nc(NC4CC4)c4ncc(C#N)n4n3)c2Cl)C[C@H]1O` (racemic) [Example 20, (+/−) 2-((2-chloro-5-cyano-3-((3S,4R)-3-hydroxy-4-methyl-1-pyrrolidinyl)phenyl)amino)-4-(cyclopropylamino)imidazo [2,1-f][1,2,4]triazine-7-carbonitrile], for which the pIC50 was 8.31.

Consider `COC(=O)N[C@@H]1CN(c2cc(C#N)cc(Nc3nc(NC4CC4)c4ncc(C#N)n4n3)c2Cl)C[C@H]1C` (racemic) [Example 21, (+/−) methyl ((3S,4R)-1-(2-chloro-5-cyano-3-((7-cyano-4-(cyclopropylamino)imidazo [2,1-f][1,2,4]triazin-2-yl)amino)phenyl)-4-methyl-3-pyrrolidinyl)carbamate], for which the pIC50 is 8.94.

`CN1CCCC12CCN(c1cc(C#N)cc(Nc3nc(NC4CC4)c4ncc(C#N)n4n3)c1Cl)C2` (racemic) [Example 25, (+/−) 2-((2-chloro-5-cyano-3-(1-methyl-1,7-diazaspiro[4.4]non-7-yl)phenyl)amino)-4-(cyclopropylamino)imidazo [2,1-f][1,2,4]triazine-7-carbonitrile]: the pIC50 was 9.31.

In the case of `CN1CCC2(CC1)CCN(c1cc(C#N)cc(Nc3nc(NC4CC4)c4ncc(C#N)n4n3)c1Cl)C2` (racemic) [Example 26, (+/−) 2-((2-chloro-5-cyano-3-(8-methyl-2,8-diazaspiro[4.5]dec-2-yl)phenyl)amino)-4-(cyclopropylamino)imidazo [2,1-f][1,2,4]triazine-7-carbonitrile], the pIC50 was 8.99.

As to `CN1CCC2(CCN(c3cc(C#N)cc(Nc4nc(NC5CC5)c5ncc(C#N)n5n4)c3Cl)CC2)C1` (racemic) [Example 27, (+/−) 2-((2-chloro-5-cyano-3-(2-methyl-2,8-diazaspiro[4.5]dec-8-yl)phenyl)amino)-4-(cyclopropylamino)imidazo [2,1-f][1,2,4]triazine-7-carbonitrile], the pIC50 is 9.06.

Turning to `CNC1CCN(c2cc(C#N)cc(Nc3nc(NC4CC4)c4ncc(C#N)n4n3)c2Cl)C1` (racemic) [Example 28, (+/−) 2-((2-chloro-5-cyano-3-(3-(methylamino)-1-pyrrolidinyl)phenyl)amino)-4-(cyclopropylamino)imidazo [2,1-f][1,2,4]triazine-7-carbonitrile], the pIC50 was 9.24.

As to `N#Cc1cc(Nc2nc(NC3CC3)c3ncc(C#N)n3n2)c(Cl)c(N2CCC3(CCCN3)C2)c1` (racemic) [Example 31, (+/−) 2-((2-chloro-5-cyano-3-(1,7-diazaspiro[4.4]non-7-yl)phenyl)amino)-4-(cyclopropylamino)imidazo [2,1-f][1,2,4]triazine-7-carbonitrile], the pIC50 was 9.21.

As for `CCNC(=O)N[C@H]1CN(c2cc(C#N)cc(Nc3nc(NC4CC4)c4ncc(C#N)n4n3)c2Cl)C[C@H]1OC` (racemic) [Example 32, (+/−) 1-((3S,4R)-1-(2-chloro-5-cyano-3-((7-cyano-4-(cyclopropylamino)imidazo [2,1-f][1,2,4]triazin-2-yl)amino)phenyl)-4-methoxy-3-pyrrolidinyl)-3-ethylurea], the pIC50 was 9.10.

Consider `CC(C)(O)C1CN(c2cc(C#N)cc(Nc3nc(NC4CC4)c4ncc(C#N)n4n3)c2Cl)CCO1` (racemic) [Example 33, (+/−) 2-((2-chloro-5-cyano-3-(2-(1-hydroxy-1-methylethyl)-4-morpholinyl)phenyl)amino)-4-(cyclopropylamino)imidazo [2,1-f][1,2,4]triazine-7-carbonitrile], for which the pIC50 was 9.27.

For the compound `CN1CCN(c2cc(C#N)cc(Nc3nc(NC4CC4)c4ncc(C#N)n4n3)c2Cl)CC1C(C)(C)O` (racemic) [Example 34, (+/−) 2-((2-chloro-5-cyano-3-(3-(1-hydroxy-1-methylethyl)-4-methyl-1-piperazinyl)phenyl)amino)-4-(cyclopropylamino)imidazo [2,1-f][1,2,4]triazine-7-carbonitrile], the pIC50 is 9.04.

As to `CC1CN(c2cc(C#N)cc(Nc3nc(NC4CC4)c4ncc(C#N)n4n3)c2Cl)CCN1C` (racemic) [Example 35, (+/−) 2-((2-chloro-5-cyano-3-(3,4-dimethyl-1-piperazinyl)phenyl)amino)-4-(cyclopropylamino)imidazo [2,1-f][1,2,4]triazine-7-carbonitrile], the pIC50 was 9.42.

Turning to `CC(CO)N1CCN(c2cc(C#N)cc(Nc3nc(NC4CC4)c4ncc(C#N)n4n3)c2Cl)CC1` (racemic) [Example 54, (+/−) 2-((2-chloro-5-cyano-3-(4-(2-hydroxy-1-methylethyl)-1-piperazinyl)phenyl)amino)-4-(cyclopropylamino) imidazo[2,1-f][1,2,4] triazine-7-carbonitrile], the pIC50 was 8.79.

As to `N#Cc1cc(Nc2nc(NC3CC3)c3ncc(C#N)n3n2)c(Cl)c(N2CCN([C@@H]3COC[C@H]3O)CC2)c1` (racemic) [Example 59, (+/−) 2-((2-chloro-5-cyano-3-(4-((3R,4S)-4-hydroxytetrahydro-3-furanyl)-1-piperazinyl)phenyl)amino)-4-(cyclopropylamino) imidazo[2,1-f][1,2,4] triazine-7-carbonitrile], the pIC50 is 9.23.

For `COCC(C)N1CCN(c2cc(C#N)cc(Nc3nc(NC4CC4)c4ncc(C#N)n4n3)c2Cl)CC1` (racemic) [Example 64, (+/−) 2-((2-chloro-5-cyano-3-(4-(2-methoxy-1-methylethyl)-1-piperazinyl)phenyl)amino)-4-(cyclopropylamino) imidazo[2,1-f][1,2,4] triazine-7-carbonilrile], the pIC50 was 9.15.

On to `N#Cc1cc(Nc2nc(NC3CC3)c3ncc(C#N)n3n2)c(Cl)c(N2CCN(CC(O)CF)CC2)c1` (racemic) [Example 66, (+/−) 2-((2-chloro-5-cyano-3-(4-(3-fluoro-2-hydroxypropyl)-1-piperazinyl)phenyl)amino)-4-(cyclopropylamino) imidazo[2,1-f][1,2,4] triazine-7-carbonitrile], for which the pIC50 was 9.24.

With `CC(O)C(=O)N1CCN(c2cc(C#N)cc(Nc3nc(NC4CC4)c4ncc(C#N)n4n3)c2Cl)CC1` (racemic) [Example 80, (+/−) 2-((2-chloro-5-cyano-3-(4-lactoyl-1-piperazinyl)phenyl)amino)-4-(cyclopropylamino) imidazo[2,1-f][1,2,4] triazine-7-carbonitrile], the pIC50 is 9.33.

Take `N#Cc1cc(Nc2nc(NC3CC3)c3ncc(C#N)n3n2)c(Cl)c(N2CCN(C(=O)C3CNC(=O)N3)CC2)c1` (racemic) [Example 81, (+/−)2-((2-chloro-5-cyano-3-(4-((2-oxo-4-imidazolidinyl)carbonyl)-1-piperazinyl)phenyl)amino)-4-(cyclopropylamino) imidazo[2,1-f][1,2,4] triazine-7-carbonitrile]: the pIC50 is 8.74.

In the case of `N#Cc1cc(Nc2nc(NC3CC3)c3ncc(C#N)n3n2)c(Cl)c(N2CCN(C(=O)C3CCCO3)CC2)c1` (racemic) [Example 84, (+/−) 2-((2-chloro-5-cyano-3-(4-(tetrahydro-2-furanylcarbonyl)-1-piperazinyl)phenyl)amino)-4-(cyclopropylamino) imidazo[2,1-f][1,2,4] triazine-7-carbonitrile], the pIC50 was 9.30.

As for `CN1CCCC(C(=O)N2CCN(c3cc(C#N)cc(Nc4nc(NC5CC5)c5ncc(C#N)n5n4)c3Cl)CC2)C1` (racemic) [Example 92, (+/−) 2-((2-chloro-5-cyano-3-(4-((1-methyl-3-piperidinyl)carbonyl)-1-piperazinyl)phenyl)amino)-4-(cyclopropylamino) imidazo[2,1-f][1,2,4] triazine-7-carbonitrile], the pIC50 was 8.95.

In the case of `N#Cc1cc(Nc2nc(NC3CC3)c3ncc(C#N)n3n2)c(Cl)c(N2CCN(C(=O)C3CNCCO3)CC2)c1` (racemic) [Example 94, (+/−) 2-(2-chloro-5-cyano-3-(4-(morpholine-2-carbonyl)piperazin-1-yl)phenylamino)-4-(cyclopropylamino) imidazo[1,2-f][1,2,4] triazine-7-carbonitrile], the pIC50 was 9.02.
